In US20260174786A1, “A NITROGEN-CONTAINING SPIROCYCLIC COMPOUND, PHARMACEUTICAL COMPOSITION AND USE THEREOF” (Prime Gene Therapeutics Co., Ltd., priority 2022, published 2026):

Target: T1, hTRPV3 (Homo sapiens, UniProt Q8NET8)
T1 construct: expressed in transfected cells; host or cells: HEK-293
T1 sequence (Q8NET8 1-790): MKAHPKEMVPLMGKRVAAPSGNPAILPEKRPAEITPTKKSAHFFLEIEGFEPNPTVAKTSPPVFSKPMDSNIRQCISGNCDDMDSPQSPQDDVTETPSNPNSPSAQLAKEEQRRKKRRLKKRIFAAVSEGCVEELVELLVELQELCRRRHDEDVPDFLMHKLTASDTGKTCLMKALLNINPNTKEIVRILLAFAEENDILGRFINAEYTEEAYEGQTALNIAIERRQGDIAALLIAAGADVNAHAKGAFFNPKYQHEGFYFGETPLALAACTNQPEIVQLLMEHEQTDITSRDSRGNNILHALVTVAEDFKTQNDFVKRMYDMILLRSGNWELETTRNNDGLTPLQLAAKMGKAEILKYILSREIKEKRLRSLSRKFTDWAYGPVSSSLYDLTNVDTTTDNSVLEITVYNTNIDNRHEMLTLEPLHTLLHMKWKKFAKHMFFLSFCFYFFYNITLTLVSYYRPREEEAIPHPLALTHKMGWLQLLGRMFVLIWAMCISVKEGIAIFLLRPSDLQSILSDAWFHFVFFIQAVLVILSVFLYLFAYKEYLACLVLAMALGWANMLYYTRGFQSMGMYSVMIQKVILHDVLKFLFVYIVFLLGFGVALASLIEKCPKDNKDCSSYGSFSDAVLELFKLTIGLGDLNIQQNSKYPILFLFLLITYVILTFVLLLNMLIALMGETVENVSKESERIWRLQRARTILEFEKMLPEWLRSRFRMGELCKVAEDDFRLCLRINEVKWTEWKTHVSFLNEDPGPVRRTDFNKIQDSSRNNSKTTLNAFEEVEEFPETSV
Experiment: Whole cell patch clamp inhibition rate test on HEK-293 cells instantaneously expressing TRPV3
Format: cell-based
Details: HEK293; hTRPV3, single concentration 0.3 μM
Experimental: In this study, HEK-293 cells instantaneously expressing TRPV3 were used for experimental detection.
The operation steps are as follows:
The cells were cultured in DMEM medium containing 10% fetal bovine serum at a temperature of 37° C. and a carbon dioxide concentration of 5%.
Day 1: Cells were inoculated into a 6-well plate with 5×10^5 cells per well.
Day 2: Transfection was performed using Lipofectamine 3000 transfection reagent, with a plasmid to transfection reagent ratio of 1 μg: 2 μL. The total amount of plasmid used per well was 3 μg. Specifically, two sterile centrifuge tubes were taken and 100 μL Opti-MEM was added to each tube. 6 μL Lipofectamine 3000 was added to one tube and mixed well; and 3 μg plasmid was added to another tube and mixed well, and then 6 μL P3000 was added and mixed well; Subsequently, the diluted plasmid DNA was added to diluted Lipofectamine 3000 and incubated at room temperature for 10-15 min. DNA liposome complex was dropped into the cells, shaked gently and mixed well, and then cultured in an incubator. The liquid was changed after 4 to 6 h.
Day 3: The cells were digested and seeded into 24 well plates with pre-placed cover slides, with 8×10^3 cells per well.
Day 4: Patch clamp testing was performed.
The voltage stimulation protocol for recording TRPV3 current using whole cell patch clamp is as follows: after forming a whole cell seal, a cell membrane voltage clamp was set at −80 mV. Firstly, a membrane potential was recorded at 0 mV, and then a voltage was command to start from −100 mV, to depolarize in the form of Ramp to 100 mV within 100 ms, and finally restore to 0 mV. Data collection was repeated every 5 seconds to observe the inhibitory effect of pharmaceutical on peak current. Experimental data was collected by EPC 10 amplifier (HEKA) and stored in PatchMaster (HEKA) software.
A microelectrode puller was used to pull the capillary glass tube into a recording electrode. The electrode filled with intracellular fluid was inserted into a microelectrode holder, and a microelectrode manipulator was operated under an inverted microscope to immerse the electrode in extracellular fluid and an electrode resistance (Rpip) was recorded. The electrode was brought into contact with the cell surface and a negative pressure suction was applied to form a high resistance seal (GΩ). At this point, a fast capacitance compensation was performed, and negative pressure was continued to apply in order to break the cell membrane, so that a whole cell recording mode was formed. Then, a slow capacitance compensation was performed and experimental parameters such as film capacitance (Cm) and series resistance (Rs) were recorded. No leakage compensation was provided.
When the TRPV3 current recorded by the whole cell had stabilized, administration was started. Each pharmaceutical concentration acted for 5 minutes (or until the current stabilized) before detecting the next concentration. A plurality of concentrations was tested for each test compound. A cover glass covered with cells was placed in a recording bath under an inverted microscope. A blank control extracellular solution and a working fluid for the compound to be tested sequentially flowed through the recording bath from low concentration to high concentration using gravity perfusion to act on the cells. Liquid exchange was performed using a peristaltic pump during recording. The current detected by each cell in the extracellular fluid without the compound served as its own control group. Each concentration was independently tested twice using at least two cells. All electrophysiological tests were conducted at room temperature.

SMILES | inhibition at 0.3 µM [%]
O=C(c1ccc(Cl)cn1)N1CCC2(CCC(O)c3cc(-c4ccccc4C4CC4)ccc32)C1 (centres unmarked) [Example 2, (5-chloropyridin-2-yl)(6-(2-cyclopropylphenyl)-4-hydroxy-3,4-dihydro-2H-spiro[naphthalene-1,3′-pyrrolidine]-1′-yl) ketone] | < 25
CC(C)c1ccccc1-c1ccc2c(c1)C(O)CC21CCN(C(=O)c2ccc(F)cn2)CC1 (centres unmarked) [Example 4, (5-fluoropyridin-2-yl)(3-hydroxy-5-(2-isopropylphenyl)-2,3-dihydrospiro[indene-1,4′-piperidine]-1′-yl) ketone] | 25 to 50
CC1(O)CC2(CCN(C(=O)c3ccc(F)cn3)C2)c2ccc(-c3ccccc3C3CC3)cc21 (centres unmarked) [Example 5, (5-(2-cyclopropylphenyl)-3-hydroxy-3-methyl-2,3-dihydrospiro[indene-1,3′-pyrrolidine]-1′-yl)(5-fluoropyridin-2-yl) ketone] | < 25
O=C(c1ccc(F)cn1)N1CCC2(C1)CC(O)(C(F)(F)F)c1cc(-c3ccccc3C3CC3)ccc12 (centres unmarked) [Example 7, (5-(2-cyclopropylphenyl)-3-hydroxy-3-(trifluoromethyl)-2,3-dihydrospiro[indene-1,3′-pyrrolidine]-1′-yl)(5-fluoropyridin-2-yl) ketone] | < 25
O=C(c1ccc(Cl)cn1)N1CCC2(C1)OB(O)c1cc(-c3ccccc3C3CC3)ccc12 (centres unmarked) [Example 10, (5-chloropyridin-2-yl)(6-(2-cyclopropylphenyl)-1-hydroxy-1H-spiro[benzo[c][1,2]oxaborolane-3,3′-pyrrolidine]-1′-yl) ketone] | 25 to 50
[2H]C1(O)CC2(CN(C(=O)c3ccc(F)cn3)C([2H])([2H])C2)c2ccc(-c3ccccc3C3CC3)cc21 (centres unmarked) [Example 11, (5-(2-cyclopropylphenyl)-3-hydroxy-2,3-dihydrospiro[indene-1,3′-pyrrolidine]-1′-yl-3,5′,5′-d3)(5-fluoropyridin-2-yl) ketone] | 70 to 100
[2H]C1(O)CC2(CCN(C(=O)c3ccc(F)cn3)C2)c2ccc(-c3ccccc3C3CC3)cc21 (centres unmarked) [Example 12, (5-(2-cyclopropylphenyl)-3-hydroxy-2,3-dihydrospiro[indene-1,3′-pyrrolidine]-1′-yl-3-d)(5-fluoropyridin-2-yl) ketone] | 70 to 100
Cc1nc(C(=O)N2CCC3(CC(O)c4cc(-c5ccccc5C5CC5)ccc43)C2)ccc1O (centres unmarked) [Example 13, (5-(2-cyclopropylphenyl)-3-hydroxy-2,3-dihydrospiro[indene-1,3′-pyrrolidine]-1′-yl)(5-hydroxy-6-methylpyridin-2-yl) ketone] | < 25
CC(C)c1ccccc1-c1ccc2c(c1)C(O)CC21CCN(C(=O)c2ccc(F)cn2)C1 (centres unmarked) [Example 16, (5-fluoropyridin-2-yl)(3-hydroxy-5-(2-isopropylphenyl)-2,3-dihydrospiro[indene-1,3′-pyrrolidine]-1′-yl) ketone] | 70 to 100
O=C(c1ccc(F)cn1)N1CC[C@]2(C[C@H](O)c3cc(-c4ccccc4C4CC4)ccc32)C1 [Example 23, ((1R,3S)-5-(2-cyclopropylphenyl)-3-hydroxy-2,3-dihydrospiro[indene-1,3′-pyrrolidine]-1′-yl)(5-fluoropyridin-2-yl)ketone] | < 25
CC(C)c1ccccc1-c1ccc2c(c1)[C@H](O)C[C@]21CCN(C(=O)c2ccc(F)cn2)C1 [Example 26] | < 25

Results, then the molecule that gave them:

inhibition at 0.3 µM [%] | SMILES
< 25 | O=C(c1ccc(F)cn1)N1CCC2(CCC(O)c3cc(-c4ccccc4C4CC4)ccc32)C1 (centres unmarked) [Example 1, (6-(2-Cyclopropylphenyl)-4-hydroxy-3,4-dihydro-2H-spiro[naphthalene-1,3′-pyrrolidine]-1′-yl) (5-fluoropyridin-2-yl) ketone]
25 to 50 | O=C(c1ccc(F)cn1)N1CCC2(CC1)CC(O)c1cc(-c3ccccc3C3CC3)ccc12 (centres unmarked) [Example 3, (5-(2-cyclopropylphenyl)-3-hydroxy-2,3-dihydrospiro[indene-1,4′-piperidine]-1′-yl)(5-fluoropyridin-2-yl) ketone]
< 25 | O=C(c1ccc(F)cn1)N1CCC2(C1)OB(O)c1ccccc12 (centres unmarked) [Example 8, (5-fluoropyridin-2-yl) (1-hydroxy-1H-spiro[benzo[c][1,2]oxaborolane-3,3′-pyrrolidine]-1′-yl) ketone]
25 to 50 | O=C(c1ccc(F)cn1)N1CCC2(C1)OB(O)c1cc(-c3ccccc3C3CC3)ccc12 (centres unmarked) [Example 9, (6-(2-cyclopropylphenyl)-1-hydroxy-1H-spiro[benzo[c][1,2]oxaborolane-3,3′-pyrrolidine]-1′-yl)(5-fluoropyridin-2-yl) ketone]
70 to 100 | O=C(c1ccc(Cl)cn1)N1CCC2(CC(O)c3cc(-c4ccccc4C4CC4)ccc32)C1 (centres unmarked) [Example 14, (5-chloropyridin-2-yl)(5-(2-cyclopropylphenyl)-3-hydroxy-2,3-dihydrospiro[indene-1,3′-pyrrolidine]-1′-yl) ketone]
70 to 100 | O=C(c1csc(Cl)n1)N1CCC2(CC(O)c3cc(-c4ccccc4C4CC4)ccc32)C1 (centres unmarked) [Example 17, (2-chlorothiazol-4-yl)(5-(2-cyclopropylphenyl)-3-hydroxy-2,3-dihydrospiro[indene-1,3′-pyrrolidine]-1′-yl) ketone]
70 to 100 | CC(C)c1ccccc1-c1ccc2c(c1)C(O)CC21CCN(C(=O)c2csc(Cl)n2)C1 (centres unmarked) [Example 18, (2-chlorothiazol-4-yl)(3-hydroxy-5-(2-isopropylphenyl)-2,3-dihydrospiro[indene-1,3′-pyrrolidine]-1′-yl) ketone]
70 to 100 | O=C(c1cccc(C2CC2)n1)N1CCC2(CC(O)c3cc(-c4ccccc4C4CC4)ccc32)C1 (centres unmarked) [Example 19, (5-(2-cyclopropylphenyl)-3-hydroxy-2,3-dihydrospiro[indene-1,3′-pyrrolidine]-1′-yl)(6-cyclopropylpyridin-2-yl) ketone]
70 to 100 | CC(C)c1ccccc1-c1ccc2c(c1)C(O)CC21CCN(C(=O)c2cccc(C3CC3)n2)C1 (centres unmarked) [Example 20, (6-cyclopropylpyridin-2-yl)(3-hydroxy-5-(2-isopropylphenyl)-2,3-dihydrospiro[indene-1,3′-pyrrolidine]-1′-yl) ketone]
< 25 | O=C(c1ccc(F)cn1)N1CC[C@]2(C[C@@H](O)c3cc(-c4ccccc4C4CC4)ccc32)C1 [Example 22, ((1R,3R)-5-(2-cyclopropylphenyl)-3-hydroxy-2,3-dihydrospiro[indene-1,3′-pyrrolidine]-1′-yl)(5-fluoropyridin-2-yl)ketone]
< 25 | O=C(c1ccc(F)cn1)N1CC[C@@]2(C[C@H](O)c3cc(-c4ccccc4C4CC4)ccc32)C1 [Example 24, ((1S,3S)-5-(2-cyclopropylphenyl)-3-hydroxy-2,3-dihydrospiro[indene-1,3′-pyrrolidine]-1′-yl)(5-fluoropyridin-2-yl)ketone]
70 to 100 | CC(C)c1ccccc1-c1ccc2c(c1)[C@H](O)C[C@@]21CCN(C(=O)c2ccc(F)cn2)C1 [Example 25]
